Values joined by “and” are separate entries in the source; they are usually repeats but may differ in a detail not shown here. Identical values can stand only once.
How the values were obtained:
Picrophilus HPPD = assay: HPPD activity assay, in vitro characterization; format: biochemical, Picrophilus torridus; details: normalized to Hordeum SEQ ID NO:2
Protocol: (§1) HPPD produces homogentisic acid and CO2 from 4-hydroxyphenylpyruvate (4-HPP) and O2. The activity assay for HPPD is based on the analysis of homogentisic acid by reversed phase HPLC.
(§2) The assay mixture can contain 150 mM potassium phosphate buffer pH 7.0, 50 mM L-ascorbic acid, 100 μM Catalase (Sigma-Aldrich), 1 μM FeSO4 and 0.2 units of purified HPPD enzyme in a total volume of 505 μl. 1 unit is defined as the amount of enzyme that is required to produce 1 nmol of HGA per minute at 20° C.
(§3) After a preincubation of 30 min the reaction is started by adding 4-HPP to a final concentration of 0.05 mM. The reaction is allowed to proceed for 45 min at room temperature. The reaction is stopped by the addition of 50 μl of 4.5 M phosphoric acid. The sample is filtered using a […] pore size PVDF filtration device.
(§4) 5 μl of the cleared sample is analyzed on an UPLC HSS T3 column (particle size 1.8 μm, dimensions 2,1×50 mm; Waters) by isocratic elution using 90% 20 mM NaH2PO4 pH 2.2, 10% methanol (v/v).
(§5) HGA is detected electrochemically at 750 mV (mode: DC; polarity: positive) and quantified by integrating peak areas (Empower software; Waters).
(§6) Inhibitors are dissolved in DMSO (dimethylsulfoxide) to a concentration of 0.5 mM. From this stock solution serial five-fold dilutions are prepared in DMSO, which are used in the assay. […] IC50 values are calculated using non-linear regression. […]

[1] = biological target: T1, Arabidopsis HPPD variant M335H, P336A (Arabidopsis thaliana, UniProt P93836, M335H/P336A); assay: HPPD activity assay, in vitro characterization of HPPD mutants; format: biochemical; details: normalized to wildtype
T1 construct: His6 (N); made in house; host or cells: E. coli BL21 (DE3)
Protocol: as §1, §2, §3, §4, §5
(§7) Inhibitors are dissolved in DMSO (dimethylsulfoxide) to a concentration of 0.5 mM. From this stock solution serial five-fold dilutions are prepared in DMSO, which are used in the assay. The respective inhibitor solution accounts for 1% of the assay volume. […] Activities are normalized by setting the uninhibited enzyme activity to 100%. IC50 values are calculated using non-linear regression.
(§8) Purified, mutant HPPD enzymes are obtained by the methods described above. Dose response and kinetic measurements are carried out using the described HPPD activity assay. Apparent michaelis constants (Km) and maximal reaction velocities (Vmax) are calculated by non-linear regression with the software GraphPad Prism 5 (GraphPad Software, La Jolla, USA) using a substrate inhibition model. […] Weighted means (by standard error) of Km and IC50 values are calculated from at least three independent experiments.
(§9) Field performance of the optimized HPPD enzyme, which is used as a herbicide tolerance trait may depend not only on its lack of sensitivity towards HPPD inhibiting herbicides but also on its activity. To assess the potential performance of a herbicide tolerance trait a tolerance index (TI) is calculated using the following formula: […]

[2] = biological target: T2, Arabidopsis HPPD variant M335H, P336G (Arabidopsis thaliana, UniProt P93836, M335H/P336G); assay: as above; format: biochemical; details: normalized to wildtype
T2 construct: His6 (N); made in house; host or cells: E. coli BL21 (DE3)
Protocol: as §1, §2, §3, §4, §5, §7, §8, §9

[3] = biological target: T3, Hordeum HPPD variant L250M (Hordeum vulgare, UniProt O48604, A164G/L250M/R146V/R147D/R148G); assay: as above; format: biochemical; details: normalized to wild-type
T3 construct: His (N); made in house; host or cells: E. coli BL21 (DE3)
Protocol: as §1, §2, §3, §4, §5, §7, §8, §9

[4] = biological target: T4, Hordeum HPPD variant L320H (Hordeum vulgare, UniProt O48604, A164G/L320H/R146V/R147D/R148G); assay: as above; format: biochemical; details: normalized to wild-type
T4 construct: His (N); made in house; host or cells: E. coli BL21 (DE3)
Protocol: as §1, §2, §3, §4, §5, §7, §8, §9

[5] = biological target: T5, Hordeum HPPD variant F404L (Hordeum vulgare, UniProt O48604, A164G/F404L/R146V/R147D/R148G); assay: as above; format: biochemical; details: normalized to wild-type
T5 construct: His (N); made in house; host or cells: E. coli BL21 (DE3)
Protocol: as §1, §2, §3, §4, §5, §7, §8, §9

[6] = biological target: T6, Hordeum HPPD variant L353M, P321R, L320N (Hordeum vulgare, UniProt O48604, L320N/L353M/P321R); assay: as above; format: biochemical; details: normalized to wild-type
T6 construct: His (N); made in house; host or cells: E. coli BL21 (DE3)
Protocol: as §1, §2, §3, §4, §5, §7, §8, §9

[7] = biological target: T7, Arabidopsis HPPD variant M335H, P336G, E363Q (Arabidopsis thaliana, UniProt P93836, E363Q/M335H/P336G); assay: as above; format: biochemical; details: normalized to wildtype
T7 construct: His6 (N); made in house; host or cells: E. coli BL21 (DE3)
Protocol: as §1, §2, §3, §4, §5, §7, §8, §9

[8] = biological target: T8, Hordeum HPPD variant L320H, P321A (Hordeum vulgare, UniProt O48604, L320H/P321A); assay: as above; format: biochemical; details: normalized to wild-type
T8 construct: His (N); made in house; host or cells: E. coli BL21 (DE3)
Protocol: as §1, §2, §3, §4, §5, §7, §8, §9

[9] = biological target: T9, Hordeum HPPD variant F377L (Hordeum vulgare, UniProt O48604, A164G/F377L/R146V/R147D/R148G); assay: as above; format: biochemical; details: normalized to wild-type
T9 construct: His (N); made in house; host or cells: E. coli BL21 (DE3)
Protocol: as §1, §2, §3, §4, §5, §7, §8, §9

[10] = biological target: T10, Arabidopsis HPPD variant F381L (Arabidopsis thaliana, UniProt P93836, F381L); assay: as above; format: biochemical; details: normalized to wildtype
T10 construct: His6 (N); made in house; host or cells: E. coli BL21 (DE3)
Protocol: as §1, §2, §3, §4, §5, §7, §8, §9

[11] = biological target: T11, Hordeum HPPD variant R309K (Hordeum vulgare, UniProt O48604, A164G/R146V/R147D/R148G/R309K); assay: as above; format: biochemical; details: normalized to wild-type
T11 construct: His (N); made in house; host or cells: E. coli BL21 (DE3)
Protocol: as §1, §2, §3, §4, §5, §7, §8, §9

Avena HPPD = assay: HPPD activity assay, in vitro characterization; format: biochemical, Avena sativa; details: normalized to Hordeum SEQ ID NO:2
Protocol: as §1, §2, §3, §4, §5, §6

T4 sequence (O48604 whole entry R146V/R147D/R148G/A164G/L320H): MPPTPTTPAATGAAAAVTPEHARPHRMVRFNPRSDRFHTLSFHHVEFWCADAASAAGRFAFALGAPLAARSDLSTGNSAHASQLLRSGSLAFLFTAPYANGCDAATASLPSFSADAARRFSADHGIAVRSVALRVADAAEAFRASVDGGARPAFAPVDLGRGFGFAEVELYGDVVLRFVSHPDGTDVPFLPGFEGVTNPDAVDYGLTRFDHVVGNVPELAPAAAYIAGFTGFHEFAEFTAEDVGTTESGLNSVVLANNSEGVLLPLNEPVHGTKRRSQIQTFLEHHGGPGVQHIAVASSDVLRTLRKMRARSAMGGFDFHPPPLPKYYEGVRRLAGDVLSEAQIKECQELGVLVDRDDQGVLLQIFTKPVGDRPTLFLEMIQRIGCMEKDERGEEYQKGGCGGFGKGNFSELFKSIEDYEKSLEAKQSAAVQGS
T3 sequence (O48604 whole entry R146V/R147D/R148G/A164G/L250M): as the sequence (O48604 whole entry R146V/R147D/R148G/A164G/L320H) above, with L250M, H320L counted along it
T11 sequence (O48604 whole entry R146V/R147D/R148G/A164G/R309K): as the sequence (O48604 whole entry R146V/R147D/R148G/A164G/L320H) above, with R309K, H320L counted along it
T1 sequence (P93836 whole entry M335H/P336A): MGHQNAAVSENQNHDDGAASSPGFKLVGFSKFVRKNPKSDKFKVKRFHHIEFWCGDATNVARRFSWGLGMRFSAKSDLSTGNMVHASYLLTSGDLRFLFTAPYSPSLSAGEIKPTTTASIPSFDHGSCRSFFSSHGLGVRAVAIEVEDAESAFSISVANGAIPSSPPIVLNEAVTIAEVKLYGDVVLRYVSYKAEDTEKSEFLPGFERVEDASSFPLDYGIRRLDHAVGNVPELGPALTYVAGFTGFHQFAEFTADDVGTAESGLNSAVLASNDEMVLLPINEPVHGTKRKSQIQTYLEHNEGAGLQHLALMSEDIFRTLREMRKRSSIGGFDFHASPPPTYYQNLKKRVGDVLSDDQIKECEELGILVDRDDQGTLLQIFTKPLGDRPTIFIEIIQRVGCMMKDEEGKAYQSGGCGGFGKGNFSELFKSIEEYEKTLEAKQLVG
T9 sequence (O48604 whole entry R146V/R147D/R148G/A164G/F377L): as the sequence (O48604 whole entry R146V/R147D/R148G/A164G/L320H) above, with H320L, F377L counted along it
T7 sequence (P93836 whole entry M335H/P336G/E363Q): as the sequence (P93836 whole entry M335H/P336A) above, with A336G, E363Q counted along it
T5 sequence (O48604 whole entry R146V/R147D/R148G/A164G/F404L): as the sequence (O48604 whole entry R146V/R147D/R148G/A164G/L320H) above, with H320L, F404L counted along it
T8 sequence (O48604 whole entry R146V/R147D/R148G/A164G/L320H/P321A): as the sequence (O48604 whole entry R146V/R147D/R148G/A164G/L320H) above, with P321A counted along it
T10 sequence (P93836 whole entry F381L): as the sequence (P93836 whole entry M335H/P336A) above, with H335M, A336P, F381L counted along it
T2 sequence (P93836 whole entry M335H/P336G): as the sequence (P93836 whole entry M335H/P336A) above, with A336G counted along it
T6 sequence (O48604 whole entry R146V/R147D/R148G/A164G/L320N/P321R/L353M): as the sequence (O48604 whole entry R146V/R147D/R148G/A164G/L320H) above, with H320N, P321R, L353M counted along it

Compound	Normalized tolerance index (TI) (Picrophilus HPPD)	Normalized tolerance index (TI) [1]	Normalized tolerance index (TI) [2]	Normalized tolerance index (TI) [3]	Normalized tolerance index (TI) [4]	Normalized tolerance index (TI) [5]	Normalized tolerance index (TI) [6]	Normalized tolerance index (TI) [7]	Normalized tolerance index (TI) [8]	Normalized tolerance index (TI) [9]	Normalized tolerance index (TI) [10]	Normalized tolerance index (TI) [11]	Normalized tolerance index (TI) (Avena HPPD)
Cn1nnnc1NC(=O)c1c(F)cc(Cl)c(S(C)(=O)=O)c1Cl [Inhibitor 1, 2,4-dichloro-6-fluoro-3-methylsulfonyl-N-(1-methyltetrazol-5-yl)benzamide]	2.1	0.6	0.5	3.1	4 and 4.6	1.6	1.9	0.2	3.7	11.8	1.2	2.6	2.8
CSc1c(Cl)cc(F)c(C(=O)Nc2ncnn2C)c1Cl [Inhibitor 3, 2,4-dichloro-6-fluoro-3-methylsulfanyl-N-(2-methyl-1,2,4-triazol-3-yl)benzamide]	0.7	0.2	0.1	1	1.9	1.8	0.9	0.3	14.3	2	0.2	3	2.8

Reference: patent US11230717B2, “Plants having increased tolerance to herbicides” (BASF SE, priority 2013, dated 2022)
